In publication doi:10.1101/2022.07.25.501481v1 (biorxiv, 2022) one finds IC50 data, which are given here for four molecules.

The assay deals with T1, BT4193 (Bacteroides thetaiotaomicron, UniProt Q8A028).
T1 sequence (Q8A028 20-736): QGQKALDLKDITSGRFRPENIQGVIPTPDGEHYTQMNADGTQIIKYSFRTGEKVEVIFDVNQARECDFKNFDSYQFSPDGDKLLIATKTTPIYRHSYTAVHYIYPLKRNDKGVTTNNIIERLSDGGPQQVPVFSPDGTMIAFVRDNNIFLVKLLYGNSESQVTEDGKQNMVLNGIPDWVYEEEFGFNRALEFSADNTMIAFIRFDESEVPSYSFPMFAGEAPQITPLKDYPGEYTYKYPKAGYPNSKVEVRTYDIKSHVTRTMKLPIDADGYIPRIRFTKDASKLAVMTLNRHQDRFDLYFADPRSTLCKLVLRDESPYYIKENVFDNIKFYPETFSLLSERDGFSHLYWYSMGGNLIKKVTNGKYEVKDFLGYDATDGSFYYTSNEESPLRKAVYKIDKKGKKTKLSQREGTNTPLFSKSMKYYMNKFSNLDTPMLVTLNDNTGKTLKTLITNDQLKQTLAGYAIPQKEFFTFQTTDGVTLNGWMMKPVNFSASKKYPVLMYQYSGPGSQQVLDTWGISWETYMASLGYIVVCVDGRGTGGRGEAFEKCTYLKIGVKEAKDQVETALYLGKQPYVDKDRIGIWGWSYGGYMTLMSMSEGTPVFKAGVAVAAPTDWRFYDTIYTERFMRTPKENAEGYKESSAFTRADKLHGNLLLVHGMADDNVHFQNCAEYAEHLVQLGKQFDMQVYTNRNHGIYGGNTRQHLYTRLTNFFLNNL
The assay is described as follows: GP-AMC cleavage fluorescence, dose-response four-parameter fit. The format is biochemical.
For `N#C[C@@H]1C[C@@H]2C[C@@H]2N1C(=O)[C@@H](N)C12CC3CC(CC(O)(C3)C1)C2` [saxagliptin], the midpoint of inhibition, the IC50, lay at 0.0103 ± 0.0007 µM. For `N[C@@H](CC(=O)N1CCn2c(nnc2C(F)(F)F)C1)Cc1cc(F)c(F)cc1F` [sitagliptin] the value was 2.15 ± 0.162 µM; for `CC(C)[C@H](N)C(=O)N1CCC[C@H]1B(O)O` [talabostat], 0.0124 ± 0.0001 µM; for `CC#CCn1c(N2CCC[C@@H](N)C2)nc2c1c(=O)n(Cc1nc(C)c3ccccc3n1)c(=O)n2C` [linagliptin], 0.445 ± 0.023 µM.
